According to patent US10294202B2, “Pyrrolidinones as herbicides” (FMC Corporation, priority 2013, dated 2019):

Assays:
[1] = system: velvetleaf; experiment: Test A pre-/postemergence herbicide test; format: in vivo, Abutilon theophrasti; conditions: for Velvetleaf plant response rating: Preemergence, visual rating on 0 to 100 scale (0 no effect, 100 complete control)
Method in brief: (§1)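 Seeds sown in loam soil/sand blend received a preemergence directed soil spray of test chemical in non-phytotoxic solvent with surfactant; postemergence plants (2–10 cm, one- to two-leaf stage) were sprayed with the same formulation. After about 10 days in greenhouse, injury was rated visually versus untreated controls, 0 (no effect) to 100 (complete control).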

[2] = system: ducksalad; experiment: Test C flooded paddy test; format: in vivo, Heteranthera limosa; conditions: Flood
Method in brief: (§2)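 Plants at the 2-leaf stage in pots flooded to 3 cm were treated by applying compound directly to the paddy water, with depth held throughout. After 13 to 15 days in a greenhouse, response was rated visually against controls on a 0 (no effect) to 100 (complete control) scale.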

[3] = system: sedge, umbrella; experiment: Test C flooded paddy test; format: in vivo, Cyperus difformis; conditions: Flood
Method in brief: as §2

[4] = system: morningglory; experiment: Test A pre-/postemergence herbicide test; format: in vivo, Ipomoea spp.; conditions: for Morningglory plant response rating: Preemergence, visual rating on 0 to 100 scale (0 no effect, 100 complete control)
Method in brief: as §1

[5] = system: crabgrass, large; experiment: Test A pre-/postemergence herbicide test; format: in vivo, Digitaria sanguinalis; conditions: for Crabgrass, Large plant response rating: Preemergence, visual rating on 0 to 100 scale (0 no effect, 100 complete control)
Method in brief: as §1

[6] = system: kochia; experiment: Test A pre-/postemergence herbicide test; format: in vivo, Kochia scoparia
Method in brief: as §1

[7] = system: ryegrass, Italian; experiment: Test A pre-/postemergence herbicide test; format: in vivo, Lolium multiflorum
Method in brief: as §1

[8] = system: galium; experiment: Test A postemergence herbicide test; format: in vivo, Galium aparine
Method in brief: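 Ratings compare treated with untreated plants roughly 10 days after a postemergence application made at the one- to two-leaf stage. Scoring uses 0–100, where 0 means no effect and 100 complete control.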

[9] = system: ragweed; experiment: Test A pre-/postemergence herbicide test; format: in vivo, Ambrosia elatior
Method in brief: as §1

[10] = Postemergence, 500 g ai/ha, 0 to 100 scale (0 no effect, 100 complete control)
[11] = preemergence, 500 g ai/ha, 0 to 100 scale
[12] = 31 g ai/ha, scale of 0 to 100 where 0 is no effect and 100 is complete control, 13 to 15 days
[13] = 62 g ai/ha, scale of 0 to 100 where 0 is no effect and 100 is complete control, 13 to 15 days
[14] = 125 g ai/ha, scale of 0 to 100 where 0 is no effect and 100 is complete control, 13 to 15 days
[15] = Postemergence, 125 g ai/ha, 0 to 100 scale, 0 no effect, 100 complete control
[16] = 125 g ai/ha, visual rating, 0 to 100 scale, 0 no effect, 100 complete control, approximately 10 days, preemergence
[17] = Postemergence, 125 g ai/ha, 0 to 100 scale, 0 is no effect, 100 is complete control
[18] = preemergence, 500 g ai/ha, 0 to 100 scale, 0 is no effect and 100 is complete control
[19] = Postemergence, 1000 g ai/ha, 0 to 100 scale (0 no effect, 100 complete control)
[20] = preemergence, 1000 g ai/ha, 0 to 100 scale
[21] = Postemergence, 125 g ai/ha, visual rating on 0 to 100 scale (0 no effect, 100 complete control), approx. 10 days
[22] = Preemergence, 500 g ai/ha, visual rating on 0 to 100 scale (0 no effect, 100 complete control)
[23] = Preemergence, 125 g ai/ha, 0 to 100 scale where 0 is no effect and 100 is complete control
[24] = 125 g ai/ha, visual rating on 0 to 100 scale (0 no effect, 100 complete control), approx. 10 days
[25] = 500 g ai/ha, 0 to 100 scale (0 no effect, 100 complete control)

## O=C1NCC(c2cccc(C(F)(F)F)c2)C1C(=O)Nc1ccccc1F (racemic) [Compound 3]
[1]; [10]
  Plant response rating, Velvetleaf: 0
[1]; 125 g ai/ha
  Velvetleaf plant response rating: 0
[1]; [11]
  Plant response rating, Velvetleaf: 0
[2]; [12]
  Plant response rating, Ducksalad: 40
[2]; [13]
  Plant response rating, Ducksalad: 60
[2]; [14]
  Plant response rating, Ducksalad: 85
[2]; 250 g ai/ha, scale 0 to 100
  Plant response rating, Ducksalad: 90
[3]; [12]
  Plant response rating, Sedge, Umbrella: 0
[3]; [13]
  Plant response rating, Sedge, Umbrella: 0
[3]; [14]
  Plant response rating, Sedge, Umbrella: 0
[3]; 250 g ai/ha, scale 0 to 100
  Plant response rating, Sedge, Umbrella: 50
[4]; [10]
  Plant response rating, Morningglory: 30
[4]; 125 g ai/ha
  Morningglory plant response rating: 0
[4]; [11]
  Plant response rating, Morningglory: 0
[5]; [15]
  Plant response rating, Crabgrass, Large: 70
[5]; [10]
  Plant response rating, Crabgrass, Large: 80
[5]; 125 g ai/ha
  Crabgrass, Large plant response rating: 90
[5]; [11]
  Plant response rating, Crabgrass, Large: 90

## O=C1NCC(c2ccc(F)c(F)c2)C1C(=O)Nc1cccc(F)c1 (racemic) [Compound 12]
[1]; [15]
  Plant response rating, Velvetleaf: 0
[1]; [10]
  Plant response rating, Velvetleaf: 20
[1]; 125 g ai/ha
  Velvetleaf plant response rating: 0
[1]; [11]
  Plant response rating, Velvetleaf: 0
[2]; [12]
  Plant response rating, Ducksalad: 0
[2]; [13]
  Plant response rating, Ducksalad: 0
[2]; [14]
  Plant response rating, Ducksalad: 0
[2]; 250 g ai/ha, scale 0 to 100
  Plant response rating, Ducksalad: 0
[3]; [12]
  Plant response rating, Sedge, Umbrella: 0
[3]; [13]
  Plant response rating, Sedge, Umbrella: 0
[3]; [14]
  Plant response rating, Sedge, Umbrella: 0
[3]; 250 g ai/ha, scale 0 to 100
  Plant response rating, Sedge, Umbrella: 0
[4]; [15]
  Plant response rating, Morningglory: 0
[4]; [10]
  Plant response rating, Morningglory: 0
[4]; 125 g ai/ha
  Morningglory plant response rating: 0
[4]; [11]
  Plant response rating, Morningglory: 0
[5]; [15]
  Plant response rating, Crabgrass, Large: 80
[5]; [10]
  Plant response rating, Crabgrass, Large: 90
[5]; 125 g ai/ha
  Crabgrass, Large plant response rating: 90
[5]; [11]
  Plant response rating, Crabgrass, Large: 90

## O=C1NCC(c2ccc(C(F)(F)F)cc2)C1C(=O)Nc1ccccc1Cl (stereo not drawn) [Compound 233]
[6]; [16]
  Plant response rating, Kochia: 50
[6]; [17]
  Plant response rating, Kochia: 60
[6]; Postemergence, 500 g ai/ha
  Kochia plant response rating (0 to 100 scale, 0 is no effect, 100 is complete control): 80
[6]; [18]
  Plant response rating, Kochia: 80
[7]; [16]
  Plant response rating, Ryegrass, Italian: 30
[7]; [17]
  Plant response rating, Ryegrass, Italian: 20
[7]; Postemergence, 500 g ai/ha
  Ryegrass, Italian plant response rating (0 to 100 scale, 0 is no effect, 100 is complete control): 40
[7]; [18]
  Plant response rating, Ryegrass, Italian: 60
[8]; 125 g ai/ha, 0 to 100 scale, 0 is no effect, 100 is complete control
  Plant response rating, Galium: 20
[8]; 500 g ai/ha
  Galium plant response rating (0 to 100 scale, 0 is no effect, 100 is complete control): 50
[9]; [16]
  Plant response rating, Ragweed: 40
[9]; [17]
  Plant response rating, Ragweed: 30
[9]; Postemergence, 500 g ai/ha
  Ragweed plant response rating (0 to 100 scale, 0 is no effect, 100 is complete control): 50
[9]; [18]
  Plant response rating, Ragweed: 50

## O=C(Nc1ccccc1F)C1C(=S)NCC1c1cccc(C(F)(F)F)c1 (stereo not drawn) [Compound 274]
[6]; [19]
  Plant response rating, Kochia: 40
[6]; [20]
  Plant response rating, Kochia: 40
[7]; [21]
  Plant response rating, Ryegrass, Italian: 0
[7]; [19]
  Plant response rating, Ryegrass, Italian: 20
[7]; [20]
  Plant response rating, Ryegrass, Italian: 40
[8]; 1000 g ai/ha, 0 to 100 scale (0 no effect, 100 complete control)
  Plant response rating, Galium: 0
[9]; [21]
  Plant response rating, Ragweed: 0
[9]; [19]
  Plant response rating, Ragweed: 30
[9]; [20]
  Plant response rating, Ragweed: 20

## CN1CC(c2ccc(C(F)(F)F)cc2)C(C(=O)Nc2ccccc2F)C1=O (stereo not drawn) [Compound 304]
[6]; [21]
  Plant response rating, Kochia: 10
[6]; [10]
  Plant response rating, Kochia: 80
[6]; [22]
  Kochia plant response rating: 70
[7]; [21]
  Plant response rating, Ryegrass, Italian: 50
[7]; [10]
  Plant response rating, Ryegrass, Italian: 50
[7]; [23]
  Plant response rating, Ryegrass, Italian: 0
[7]; [22]
  Ryegrass, Italian plant response rating: 0
[8]; [24]
  Plant response rating, Galium: 20
[8]; [25]
  Plant response rating, Galium: 60
[9]; [21]
  Plant response rating, Ragweed: 0
[9]; [10]
  Plant response rating, Ragweed: 20
[9]; [23]
  Plant response rating, Ragweed: 0

## O=C1NCC(c2cccc(Br)c2)C1C(=O)Nc1ccccc1F (stereo not drawn) [Compound 307]
[6]; [21]
  Plant response rating, Kochia: 0
[6]; [10]
  Plant response rating, Kochia: 0
[6]; [23]
  Plant response rating, Kochia: 0
[6]; [22]
  Kochia plant response rating: 0
[7]; [21]
  Plant response rating, Ryegrass, Italian: 0
[7]; [10]
  Plant response rating, Ryegrass, Italian: 0
[7]; [23]
  Plant response rating, Ryegrass, Italian: 0
[7]; [22]
  Ryegrass, Italian plant response rating: 0
[8]; [24]
  Plant response rating, Galium: 0
[8]; [25]
  Plant response rating, Galium: 0
[9]; [21]
  Plant response rating, Ragweed: 0
[9]; [10]
  Plant response rating, Ragweed: 0
[9]; [23]
  Plant response rating, Ragweed: 0
[9]; [22]
  Ragweed plant response rating: 0

## O=C1NCC(c2cccc(C(F)(F)F)c2)C1C(=O)Nc1ccc(F)c(F)c1F (stereo not drawn) [Compound 315]
[6]; [21]
  Plant response rating, Kochia: 50
[6]; [10]
  Plant response rating, Kochia: 70
[6]; [23]
  Plant response rating, Kochia: 40
[6]; [22]
  Kochia plant response rating: 60
[7]; [21]
  Plant response rating, Ryegrass, Italian: 20
[7]; [10]
  Plant response rating, Ryegrass, Italian: 50
[7]; [23]
  Plant response rating, Ryegrass, Italian: 40
[7]; [22]
  Ryegrass, Italian plant response rating: 70
[8]; [24]
  Plant response rating, Galium: 40
[8]; [25]
  Plant response rating, Galium: 50
[9]; [21]
  Plant response rating, Ragweed: 20
[9]; [10]
  Plant response rating, Ragweed: 40
[9]; [23]
  Plant response rating, Ragweed: 20
[9]; [22]
  Ragweed plant response rating: 30

## O=C1NCC(c2cccc(C(F)(F)F)c2)C1C(=O)Nc1cccc(Cl)c1F (stereo not drawn) [Compound 316]
[6]; [21]
  Plant response rating, Kochia: 30
[6]; [10]
  Plant response rating, Kochia: 40
[6]; [23]
  Plant response rating, Kochia: 0
[6]; [22]
  Kochia plant response rating: 30
[7]; [21]
  Plant response rating, Ryegrass, Italian: 20
[7]; [10]
  Plant response rating, Ryegrass, Italian: 30
[7]; [23]
  Plant response rating, Ryegrass, Italian: 20
[7]; [22]
  Ryegrass, Italian plant response rating: 50
[8]; [24]
  Plant response rating, Galium: 20
[8]; [25]
  Plant response rating, Galium: 40
[9]; [21]
  Plant response rating, Ragweed: 20
[9]; [10]
  Plant response rating, Ragweed: 30
[9]; [23]
  Plant response rating, Ragweed: 20
[9]; [22]
  Ragweed plant response rating: 30

## O=C1NCC(c2cccc(OC(F)F)c2)C1C(=O)Nc1ccc(F)c(F)c1F (stereo not drawn) [Compound 325]
[6]; [21]
  Plant response rating, Kochia: 60
[6]; [10]
  Plant response rating, Kochia: 80
[6]; [23]
  Plant response rating, Kochia: 70
[6]; [22]
  Kochia plant response rating: 80
[7]; [21]
  Plant response rating, Ryegrass, Italian: 30
[7]; [10]
  Plant response rating, Ryegrass, Italian: 50
[7]; [23]
  Plant response rating, Ryegrass, Italian: 30
[7]; [22]
  Ryegrass, Italian plant response rating: 50
[8]; [24]
  Plant response rating, Galium: 50
[8]; [25]
  Plant response rating, Galium: 60
[9]; [21]
  Plant response rating, Ragweed: 20
[9]; [10]
  Plant response rating, Ragweed: 60
[9]; [23]
  Plant response rating, Ragweed: 30
[9]; [22]
  Ragweed plant response rating: 50
